The values below come from patent publication US20090298691A1, “METHODS AND COMPOSITIONS FOR CONTROL OF AQUATIC WEEDS USING HERBICIDAL COMBINATIONS WITH FLURIDONE” (priority 2008, published 2009).

For one assay, the system named is target plant. Particulars: Sonar A.S. label; cited from earlier work.
Assay [1] has as its system panicgrass (Egyptian panicgrass, Kissimmee 'Knotgrass'). Kind of assay: Example 7: greenhouse mesocosm selectivity trial, 60-day exposure, aboveground shoot biomass. The conditions noted are these: total parts per billion, non-linear regression. The class given is in vivo, Paspalidium geminatum. The text has this:
(§1) Five different native aquatic plants were acquired from a Florida supplier (Aquatic Plants of Florida, Sarasota, Fla.). These species were jointed spikerush (Eleocharis interstincta), spatterdock (Nuphar advena), soft-stem bulrush (Scirpus validus), and maidencane (Panicum hemitomon), and tapegrass (Vallisneria americana). The final native species in the trial—Egyptian panicgrass or Kissimmee ‘Knotgrass’ (Paspalidium geminatum)—and fluridone-resistant hydrilla were collected from West Lake Tohopekaliga (Osceola County, FL). Transplanted tissue for each native species included both young fresh shoot growth and a portion of root stock/rhizome. Hydrilla was planted as 30 cm sections of fresh apical shoot growth. All plants were transplanted into commercial retail topsoil amended with slow-release granular 14-14-14 fertilizer at rate of 2.5 g fertilizer per kg soil. Spatterdock rhizomes were transplanted into 11.4L plastic garden pots, while all other species were transplanted into 1.9-L pots. Soil in each pot was capped with a layer of sand. […]
(§2) Three weeks after transplanting, herbicide stock solutions were used to apply either fluridone or penoxsulam alone or in combination. […] Four replicate pots of each species were harvested at time of treatment to quantify pre-treatment aboveground biomass. […]

In assay [2] the test system is Lake Okahumpka hydrilla (fluridone resistant biotype). Description: Example 2: hydrilla in 14 L cylinders, c.a. 30 days exposure, plant weights. Type of assay: in vivo, Hydrilla verticillata. Particulars: for biomass reduction: 6 ppb. The text has this:
(§3) Hydrilla was collected from three sources in Florida; two representing fluridone resistant biotypes (Lake Okahumpka and Lake Cypress) and one fluridone susceptible biotypes (CAIP). Apical sections containing a single meristem were planted in small pots (13.5 cm length×3.75 cm diameter) containing potting soil and amended with Osmocote fertilizer. Each biotype were placed into 14 L cylinders and allowed to establish growth for 6-days prior to treatment. Treatments were replicated three times and included: controls, penoxsulam 6 and 12 ppb; fluridone 6 and 12 ppb; combinations of fluridone+penoxsulam (1:1 ratio) at 12 ppb (6 ppb each). Plants were exposed for c.a. 30 days and then harvested to determine plant weights.

The subject of assay [3] is CAIP hydrilla (fluridone susceptible biotype). The description is as above. The class given is in vivo, Hydrilla verticillata. The conditions noted are these: 6 ppb.
From the text: as §3

Assay [4] relates to Lake Cypress hydrilla (fluridone resistant biotype). The description is as above. Type of assay: in vivo, Hydrilla verticillata. The conditions noted are these: for biomass reduction: 6 ppb.
From the text: as §3

The subject of another assay is spatterdock. Kind of assay: Example 7: greenhouse mesocosm selectivity trial, 60-day exposure, aboveground shoot biomass. The class given is in vivo, Nuphar advena. Particulars: total parts per billion, non-linear regression.
From the text: as §1, §2

Assay [5] concerns Lake Okahumpka hydrilla (fluridone resistant biotype). Description: Example 1: hydrilla in 14 L cylinders, 25 days of exposure, total stem length and fresh weight. Type of assay: in vivo, Hydrilla verticillata. Particulars: 12 ppb (combination 6 ppb each). The text has this:
(§4) Apical sections of hydrilla were collected from Rainbow River and Lake Okahumpka, Fla. Hydrilla in Lake Okahumpka is known to have developed increased tolerance to fluridone (FRH). The biotype from Rainbow River has never been exposed to fluridone and is presumably fluridone susceptible. Apical sections were planted in potting soil amended with Osmocote fertilizer in small pots (13.5 cm length×3.75 cm diameter). A 2.54 cm sand layer was placed over the top of the potting soil. Pots containing each biotype of hydrilla were placed into 14 L acrylic cylinders and allowed to establish slight growth prior to treatment. Cylinders were then treated with penoxsulam (P) or fluridone (F) at 12 ppb, and fluridone+penoxsulam (1:1 ratio) at 6 ppb (3 ppb each) and 12 ppb (6 ppb each). All treatments were replicated 4 times. After 25 days of exposure, plants were harvested and total stem length and fresh weights were measured.

The test system of another assay is tapegrass. Kind of assay: Example 7: greenhouse mesocosm selectivity trial, 60-day exposure, aboveground shoot biomass. The class given is in vivo, Vallisneria americana. The conditions noted are these: total parts per billion, non-linear regression.
From the text: as §1, §2

The test system of assay [6] is fluridone resistant hydrilla biotype (Lake Cypress). Kind of assay: Example 3: hydrilla in 14 L cylinders, 56 days exposure, dry weights. The conditions noted are these: 3 ppb. Type of assay: in vivo, Hydrilla verticillata. The text has this:
(§5) Hydrilla was collected from two sources in Florida representing a fluridone resistant biotype (Lake Cypress) and a fluridone susceptible biotype. Apical sections containing a single meristem were planted in small pots (13.5 cm length×3.75 cm diameter) containing potting soil and amended with Osmocote fertilizer. Each biotype were placed into 14 L cylinders and allowed to establish growth prior to treatment. Treatments were replicated three times and included: controls, penoxsulam or fluridone at 3 and 6 ppb; combinations of fluridone+penoxsulam (1:1 ratio) at 6 ppb (3 ppb of each). Plants were exposed for 56 days and then harvested to determine dry weights. At 14 days after treatment (DAT) net photosynthesis from exposed plant tissue was measured.

Assay [7] deals with fluridone susceptible hydrilla biotype. The description is as above. Type of assay: in vivo, Hydrilla verticillata. The conditions noted are these: 3 ppb.
From the text: as §5

The test system of the next assay is soft-stem bulrush. Kind of assay: Example 7: greenhouse mesocosm selectivity trial, 60-day exposure, aboveground shoot biomass. Type of assay: in vivo, Scirpus validus. Particulars: total parts per billion, non-linear regression.
From the text: as §1, §2

For assay [8], the system named is Hydrilla (FR), fluridone-resistant hydrilla. The description is as above. Type of assay: in vivo, Hydrilla verticillata. The conditions noted are these: total parts per billion, non-linear regression.
From the text: as §1, §2

The next assay concerns jointed spikerush. Described as above. The class given is in vivo, Eleocharis interstincta. Particulars: total parts per billion, non-linear regression.
From the text: as §1, §2

For a further assay, the system named is maidencane. The description is as above. Particulars: total parts per billion, non-linear regression. Type of assay: in vivo, Panicum hemitomon.
From the text: as §1, §2

Assay [9] concerns hydrilla. The conditions noted are these: literature; cited from earlier work.
Assay [10] has as its system Rainbow River hydrilla (fluridone susceptible). Description: Example 1: hydrilla in 14 L cylinders, 25 days of exposure, total stem length and fresh weight. The class given is in vivo. Particulars: Hydrilla verticillata, 600 h, 12 ppb (combination 6 ppb each), read-out: stem length inhibited compared to control plants.
From the text: as §4

In assay [11] the test system is hydrilla. Description: Contact time of penoxsulam alone under operational field use. Type of assay: in vivo, Hydrilla verticillata.
For another assay, the system named is Eurasian watermilfoil. Kind of assay: Example 5: Eurasian watermilfoil in 12 L tanks, 40 day exposure, root and shoot dry weights. The conditions noted are these: 75 ppb; 40 days. The class given is in vivo. From the text:
Apical sections (12 to 15 cm in length) of Eurasian watermilfoil (EWM) were taken from Sweetwater Lake, Ind. and from culture and planted into small pots (13.5 cm length×3.75 cm diameter) containing Wallace Farm® topsoil amended with 14-14-14 slow release Osmocote® fertilizer (˜2.5 g Osmocote/kg soil). Approximately 5 to 7 cm of the apical section extended above the sediment at planting, and a sand cap was placed over the potting soil (˜2 cm deep). Plants were then transferred to a 12 L acrylic tanks filled with well water. Plants were allowed to grow for 7 days before the following treatment was initiated in triple replicate:
Plants were harvested at 40 days. At harvest, plants were rinsed free of algae, roots and shoots were separated, and placed in paper sacks in a drying oven for 4 days at 70° C. temperature, and dry weights were determined (FIG. 6).

“1-methyl-3-phenyl-5-3-(trifluoromethyl)phenyl-4(1H)-pyridinone [Fluridone]”: the “minimum time maintained in contact with a target plant” value in the assay with target plant is recorded as at least 45 days. Further, the “Calculated EC50 on shoot biomass” value was 14.4 ppb in assay [1]; 2.5 ppb in the assay on spatterdock; 4.4 ppb in the assay on tapegrass; 5.3 ppb in the assay with soft-stem bulrush; 10.1 ppb in [8]; 28.3 ppb in the assay on jointed spikerush. Moreover, the “Calculated EC50 on shoot biomass” value with maidencane was 4.4 ppb. For the same compound, the values for the biomass reduction entry in [2], in assay [3] and in assay [4] were “minimal affect”, 60% and “minimal affect”, respectively. In addition, the “effect on biomass, in words” value in assay [2] (up to 12 ppb) and in [4] (up to 12 ppb) was “generally not affected” in each case. Moreover, the “effect on fluridone tolerant biotype (stem length, biomass), in words” value in assay [5] was “little effect”. In assay [5], the “stem length inhibited compared to control plants” value is on record as around 10%. Besides, the results for the “reduction in biomass compared to controls” value in [6] and in assay [7] were “no effect” and around 50%, respectively.

For `O=C(O)C1C2CCC(O2)C1C(=O)O` (centres unmarked) [Endothall, 7-oxabicyclo[2.2.1]heptane-2,3-dicarboxylic acid], the “contact with hydrilla to achieve effective control” value in the assay with hydrilla [9] is recorded as “less than 72 hours”.

As to `COc1cnc(OC)n2nc(NS(=O)(=O)c3c(OCC(F)F)cccc3C(F)(F)F)nc12` [Penoxsulam], the “Calculated EC50 on shoot biomass” value is listed as 267.6 ppb in assay [1]; 12.5 ppb with spatterdock; 9.6 ppb with tapegrass; 8.9 ppb in the assay with soft-stem bulrush; 4.4 ppb in [8]; 12.8 ppb in the assay on jointed spikerush. For the same compound, the “Calculated EC50 on shoot biomass” value in the assay on maidencane is recorded as 52.5 ppb. The biomass reduction in assay [2] is listed as 53%; in assay [3], 63%; in assay [4], 57%. For the same compound, the inhibition at 0.012 ppm was 50 to 60% in [10] and around 40% in [5] (Hydrilla verticillata, 600 h, read-out: stem length inhibited compared to control plants). In addition, in the assay with hydrilla [11], the “contact time to achieve full hydrilla control” value is listed as “greater than 4 months”. Besides, the “reduction in biomass compared to controls” value in assay [6] and in [7] was around 40% throughout.

Regarding `O=C(O)COc1nc(Cl)c(Cl)cc1Cl` [Triclopyr, 3,5,6-trichloro-2-pyridyloxyacetic acid], in the assay with Eurasian watermilfoil, the “above ground biomass reduction” value was 96% and the “below ground biomass reduction” value turned out to be 74%.
